Here are results for 13 compounds from PubChem BioAssay (NCI).

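Test compounds were applied to cells in 96-well plates for 48 hours at 5 doses. GI50 marks 50% less growth. Definition used: TGI = concentration required for complete inhibition of growth.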 Bounds are passed on as bounds.

Holding throughout (test): growth of human tumour cells (NCI), 48 h
Experiment [1] concerns SW-620 colon.
Experiment [2] deals with IGROV1 ovarian.
Experiment [3] deals with NCI/ADR-RES ovarian.
Experiment [4] relates to MOLT-4 leukemia.
In experiment [5] the test system is SF-295 CNS.
The subject of experiment [6] is CCRF-CEM leukemia.
In experiment [7] the test system is PC-3 prostate.
Experiment [8] deals with UO-31 renal.
The test system of experiment [9] is SF-268 CNS.
Experiment [10] has as its system SK-MEL-28 melanoma.
In experiment [11] the test system is NCI-H226 lung.
The test system of experiment [12] is HOP-62 NSCLC.

As to `CC(=O)NC(c1nc2cc(C)c(C)cc2[nH]1)c1nc2cc(C)c(C)cc2[nH]1`, the TGI in [1] was over 100 µM; in [2], 58.9 µM; in [3] it was 89.2 µM; in experiment [4] it was 26.6 µM; in experiment [5], 49.1 µM; in experiment [6], 37 µM. Further, the TGI in experiment [7] is 94.7 µM; in experiment [8], 53.2 µM; in experiment [9] it was over 100 µM; in [10] it was 53.4 µM.

For the compound `CNC(=O)SCC(N)C(=O)O` (stereo not drawn), the TGI in [1], in experiment [2], in experiment [11], in experiment [3], in [4] and in experiment [5] was over 100 µM each time. Also, the TGI in experiment [6], in experiment [12], in experiment [8], in experiment [9] and in experiment [10] was over 100 µM throughout.

`c1ccc([P+](Cc2ccccc2C[P+](c2ccccc2)(c2ccccc2)c2ccccc2)(c2ccccc2)c2ccccc2)cc1`: the TGI in experiment [1], in experiment [2], in [11], in experiment [3], in [5] and in experiment [12] was over 100 µM in each case. For the same compound, the TGI in experiment [7], in experiment [8], in experiment [9] and in experiment [10] was over 100 µM throughout.

As to `c1ccc(-n2nc3ccc4nonc4c3n2)cc1`, the TGI in [1], in experiment [2], in experiment [3], in experiment [4], in experiment [5] and in [6] was over 100 µM throughout. The TGI in experiment [12], in experiment [7], in experiment [9] and in experiment [10] was over 100 µM each time.

Consider `COc1ccc(OCc2ccc3nc(-c4ccccc4)c(Cl)nc3c2)cc1`, for which the TGI was over 100 µM in experiment [1]; over 100 µM in experiment [2]; over 100 µM in [3]; over 100 µM in experiment [4]; 62.1 µM in [5]; 45.4 µM in experiment [6]. Besides, the TGI in experiment [12] was 28.6 µM; in experiment [7], over 100 µM; in experiment [8], over 100 µM; in [9] it was over 100 µM; in experiment [10], over 100 µM.

`[O-][n+]1ccccc1S`: the TGI in experiment [1] was 23.1 µM; in [2], 4.09 µM; in experiment [11], over 100 µM; in [3], over 100 µM; in experiment [5], 9.51 µM; in experiment [12], 13.1 µM. The TGI in [7], in experiment [8], in [9] and in experiment [10] was over 100 µM throughout. Also, the values for the GI50 in [3] and in [7] were 5.17 µM and 3.61 µM, respectively.

`C=CCSC1=N/C(=C\c2cccs2)C(=O)N1CC=C`: the TGI in experiment [1] is over 100 µM; in [2] it was over 100 µM; in [11] it was over 100 µM; in experiment [3] it was over 100 µM; in [4], 62.2 µM; in experiment [5], over 100 µM. In addition, the TGI in experiment [12], in experiment [7], in experiment [8], in experiment [9] and in experiment [10] was over 100 µM in each case.

For `CC(=O)Nc1ccc2[nH]c(-c3cccc(Cl)c3)cc(=O)c2c1`, the TGI in experiment [1], in [2], in experiment [3], in experiment [4], in experiment [6] and in experiment [12] was over 100 µM throughout. In addition, the TGI in [7] and in experiment [10] was over 100 µM each time.

`CCOC(=O)c1c(Cl)nc2ccccc2c1N=[N+]=[N-]`: the TGI is 35.1 µM in experiment [1]; 46.9 µM in [2]; over 100 µM in experiment [11]; over 100 µM in experiment [4]; over 100 µM in experiment [5]; over 100 µM in experiment [6]. Moreover, the TGI in experiment [12] is over 100 µM; in experiment [7], 68.5 µM; in experiment [8], 36.5 µM; in [9], 30.5 µM; in experiment [10] it was over 100 µM.

As for `C/C=C/C1=CC(=O)C(O)C1O` (stereo not drawn), the TGI in experiment [1] was 99.3 µM; in [2], 141 µM; in experiment [11], 62.5 µM; in experiment [3] it was 66.1 µM; in experiment [4], 109 µM; in experiment [5], 118 µM. Besides, the TGI was found to be 103 µM in experiment [6]; 126 µM in experiment [12]; 106 µM in [8]; 91.2 µM in [9]; 97.9 µM in experiment [10].

Consider `CCOC(=O)[C@@]12C3C=CC(CC3)[C@]1(C(=O)c1ccccc1)C(=O)C(=O)N2c1ccccc1` (stereo partly drawn), for which the TGI in experiment [1], in [3], in experiment [4], in experiment [5], in experiment [12] and in experiment [7] was over 100 µM in each case. Further, the TGI in [8], in experiment [9] and in experiment [10] was over 100 µM throughout.

Take `COc1cc(S(=O)(=O)Nc2ccc(-c3csc(N)n3)cc2)ccc1Cl`: the TGI was 58.5 µM in experiment [1]; 77.5 µM in [11]; 83.3 µM in experiment [3]; 31.7 µM in experiment [4]; 53.5 µM in [6]; 29.7 µM in experiment [7]. Also, the results for the TGI in [8], in experiment [9] and in experiment [10] were 37.2 µM, 76.6 µM and 48.5 µM, respectively.

Consider `C=C[C@@H]1C[C@]2(C(=O)OC)Cc3nc4ccccc4nc3CC(C(=O)OC)=C2O1`, for which the TGI in [1], in experiment [2], in experiment [3], in experiment [4], in experiment [5] and in [6] was over 100 µM in each case. In addition, the TGI in experiment [12], in [7], in experiment [9] and in [10] was over 100 µM throughout.
